The test concerns CLL cells. The test is described as follows: Human CLL Apoptosis Assay. The settings on record: without HS-5 co-culture. The test is classed as cell-based. The method, then:
Peripheral blood mononuclear cells (PBMCs) were isolated from primary chronic lymphocytic leukemia (CLL) patients and cultured for 3-5 hours in Lymphocyte Growth Medium (LGM, RPMI 1640, 1 mM Sodium Pyruvate, 10 mM HEPES, pH 7.4, 100 U/mL Penicillin/100 μg/mL Streptomycin, 55 μM β-Mercaptoethanl, 2 mM GlutaMAX, and 10% FBS) at 37° C. with 5% CO2. Cells were then centrifuged at room temperature for 10 minutes and resuspended in an appropriate volume of LGM for plating (maximum cell density=3.12×10^6/ml). Final assay wells were set up in U-bottom 96-well tissue culture plates with HS-5 co-culture (plates were coated with 3×10^4 HS-5 cells in 100 μl overnight at 37° C. prior to the assay) or no co-culture.
Cell suspensions (80 μL, 2.5×10^5-9.4×10^4) were added to the plate and incubated for 1 hour prior to stimulation with αIgM/αIgG (7.8 μg/well) and αCD40 (4 μg/well). Cells were incubated with compounds for about 66 hours at 37° C. After incubation, the cells were transferred to deeper plates and washed once with 500 μL of 1×PBS^+/+. Cells were resuspended in Invitrogen's aqua Live/Dead reagent according to manufacturer's directions and incubated 30 minutes on ice. Aqua Live/Dead was quenched with an equal volume of PBS^+/+ with 4% FBS (FACS buffer). Cells were centrifuged and labeled with αCD5^−PE, αCD19-BV421 and AnnexinV-APC in a total volume of […] and incubated 30 minutes on ice. After labeling, cells were rinsed twice in FACS buffer and then fixed with BD Fixation buffer for 30 minutes on ice. Cells were rinsed twice with FACS buffer and analyzed.
For the apoptosis analysis, flow cytometric sampling of 5000-20,000 total events were collected on a BD FACS Canto II instrument using a high throughput screen (HTS) autosampler for analysis of apoptosis. CD5^+/CD19^+ cells were identified and subsequently gated for AnnexinV^+/LiveDead and AnnexinV^+/LiveDead^+ populations.
Flow cytometric data were extracted to a flow cytometry standard (fcs) file. Average percentages of AnnexinV^+ cells were determined for the positive control and negative wells (no compound). The percentage of AnnexinV^+ cells represented the percentage or levels of apoptosis. Similar results were obtained for CLL cells with HS-5 co-culture.

Take `c1cn2cc(-c3ccc4cn[nH]c4c3)nc(Nc3ccc(N4CCOCC4)cc3)c2n1` [Compound A1, 6-(1H-indazol-6-yl)-N-(4-morpholinophenyl)imidazo[1,2-a]pyrazin-8-amine]: the “Percentage of the AnnexinV^+ cells from CLL patients” value (“Percentage of the AnnexinV^+ cells” for short) is reported as 12% (Sample 1, 0 nM Compound B1, 30 nM Compound A1); 12% (Sample 1, 0 nM Compound B1, 100 nM Compound A1); 16% (Sample 1, 0 nM Compound B1, 300 nM Compound A1); 9% (Sample 2, 0 nM Compound B1, 30 nM Compound A1); 12% (Sample 2, 0 nM Compound B1, 100 nM Compound A1); 20% (Sample 2, 0 nM Compound B1, 300 nM Compound A1). Further, the “Percentage of the AnnexinV^+ cells” value is, setting by setting: (Sample 3, 0 nM Compound B1, 30 nM Compound A1) 13%; (Sample 3, 0 nM Compound B1, 100 nM Compound A1) 15%; (Sample 3, 0 nM Compound B1, 300 nM Compound A1) 18%.
As for `CC1(C)CCC(CN2CCN(c3ccc(C(=O)NS(=O)(=O)c4ccc(NCC5CCOCC5)c([N+](=O)[O-])c4)c(Oc4cnc5[nH]ccc5c4)c3)CC2)=C(c2ccc(Cl)cc2)C1` [Compound B1], the “Percentage of the AnnexinV^+ cells” value is 13% (Sample 1, 0.8 nM Compound B1, 0 nM Compound A1); 15% (Sample 1, 1.6 nM Compound B1, 0 nM Compound A1); 15% (Sample 1, 3.1 nM Compound B1, 0 nM Compound A1); 16% (Sample 1, 6.3 nM Compound B1, 0 nM Compound A1); 19% (Sample 1, 12.5 nM Compound B1, 0 nM Compound A1); 24% (Sample 1, 25 nM Compound B1, 0 nM Compound A1). Moreover, the “Percentage of the AnnexinV^+ cells” value by setting is: (Sample 1, 50 nM Compound B1, 0 nM Compound A1) 31%; (Sample 1, 100 nM Compound B1, 0 nM Compound A1) 36%; (Sample 1, 200 nM Compound B1, 0 nM Compound A1) 46%; (Sample 2, 0.8 nM Compound B1, 0 nM Compound A1) 10%; (Sample 2, 1.6 nM Compound B1, 0 nM Compound A1) 18%; (Sample 2, 3.1 nM Compound B1, 0 nM Compound A1) 35%. For the same compound, the “Percentage of the AnnexinV^+ cells” value (Sample 2, 6.3 nM Compound B1, 0 nM Compound A1) amounted to 55%; the “Percentage of the AnnexinV^+ cells” value (Sample 2, 12.5 nM Compound B1, 0 nM Compound A1) is listed as 76%; the “Percentage of the AnnexinV^+ cells” value (Sample 2, 25 nM Compound B1, 0 nM Compound A1) was 89%; the “Percentage of the AnnexinV^+ cells” value (Sample 2, 50 nM Compound B1, 0 nM Compound A1) is recorded as 93%; the “Percentage of the AnnexinV^+ cells” value (Sample 2, 100 nM Compound B1, 0 nM Compound A1) was 95%; the “Percentage of the AnnexinV^+ cells” value (Sample 2, 200 nM Compound B1, 0 nM Compound A1) came to 97%. Further, the “Percentage of the AnnexinV^+ cells” value is recorded as 16% (Sample 3, 0.8 nM Compound B1, 0 nM Compound A1); 21% (Sample 3, 1.6 nM Compound B1, 0 nM Compound A1); 33% (Sample 3, 3.1 nM Compound B1, 0 nM Compound A1); 50% (Sample 3, 6.3 nM Compound B1, 0 nM Compound A1); 69% (Sample 3, 12.5 nM Compound B1, 0 nM Compound A1); 89% (Sample 3, 25 nM Compound B1, 0 nM Compound A1). Further, the “Percentage of the AnnexinV^+ cells” value is, setting by setting: (Sample 3, 50 nM Compound B1, 0 nM Compound A1) 97%; (Sample 3, 100 nM Compound B1, 0 nM Compound A1) 99%; (Sample 3, 200 nM Compound B1, 0 nM Compound A1) 100%.

Values taken from patent US20160220573A1, “COMBINATION THERAPIES FOR TREATING CANCERS” (Gilead Sciences, Inc., priority 2015, published 2016).
